In experiment [1] the target is T1, Acetylcholinesterase (Homo sapiens, UniProt P22303).
Description: Inhibition of human recombinant AChE pre-incubated for 5 mins before acetylthiocholine substrate addition by Ellman's method
Another experiment deals with Cholinesterase (Homo sapiens, UniProt P06276).
Experiment [2] concerns the target T1, Acetylcholinesterase. The source holds these as a separate data set.
Description: Inhibition of human recombinant AChE assessed as dissociation constant for enzyme-inhibitor complex by Lineweaver-Burk plot
The target in experiment [3] is T1, Acetylcholinesterase. This is another data set of the same source.
Description: Inhibition of human recombinant AChE assessed as dissociation constant for enzyme-inhibitor-substrate complex by Lineweaver-Burk plot

pIC50, pKi: −log10 of the molar value.

T1 sequence (P22303 whole entry): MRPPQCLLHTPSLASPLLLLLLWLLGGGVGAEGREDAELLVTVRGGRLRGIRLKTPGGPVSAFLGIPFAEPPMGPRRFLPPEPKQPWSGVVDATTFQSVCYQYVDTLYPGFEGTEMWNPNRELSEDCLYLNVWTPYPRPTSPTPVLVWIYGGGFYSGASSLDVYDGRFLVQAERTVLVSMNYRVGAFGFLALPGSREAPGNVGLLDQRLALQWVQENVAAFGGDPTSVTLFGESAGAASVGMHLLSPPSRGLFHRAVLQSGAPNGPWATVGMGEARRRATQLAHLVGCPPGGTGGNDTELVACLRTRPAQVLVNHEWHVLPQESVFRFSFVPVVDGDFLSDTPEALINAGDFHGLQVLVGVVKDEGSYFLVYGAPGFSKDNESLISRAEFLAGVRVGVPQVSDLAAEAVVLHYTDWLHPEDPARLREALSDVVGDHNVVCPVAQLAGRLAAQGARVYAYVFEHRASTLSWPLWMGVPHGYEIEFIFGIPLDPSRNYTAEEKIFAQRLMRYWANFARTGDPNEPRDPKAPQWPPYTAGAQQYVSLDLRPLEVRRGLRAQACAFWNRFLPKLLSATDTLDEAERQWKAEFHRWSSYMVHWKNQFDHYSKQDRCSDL
Cholinesterase, sequence (P06276 whole entry): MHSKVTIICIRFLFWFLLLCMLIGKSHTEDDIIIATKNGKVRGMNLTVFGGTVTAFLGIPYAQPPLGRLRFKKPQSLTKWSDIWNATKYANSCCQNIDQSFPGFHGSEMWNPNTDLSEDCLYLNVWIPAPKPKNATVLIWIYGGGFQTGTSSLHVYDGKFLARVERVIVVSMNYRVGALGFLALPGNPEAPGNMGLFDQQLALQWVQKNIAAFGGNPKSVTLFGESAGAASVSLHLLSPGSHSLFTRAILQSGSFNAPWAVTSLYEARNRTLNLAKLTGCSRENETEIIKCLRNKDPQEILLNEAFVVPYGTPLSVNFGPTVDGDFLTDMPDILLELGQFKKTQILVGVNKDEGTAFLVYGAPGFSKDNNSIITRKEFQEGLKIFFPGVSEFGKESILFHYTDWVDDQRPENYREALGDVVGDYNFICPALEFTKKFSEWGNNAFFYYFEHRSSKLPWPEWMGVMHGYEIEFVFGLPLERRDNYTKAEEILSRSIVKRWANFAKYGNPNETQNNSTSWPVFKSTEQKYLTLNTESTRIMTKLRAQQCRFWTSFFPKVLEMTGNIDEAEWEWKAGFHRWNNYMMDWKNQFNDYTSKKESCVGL

As to `CCN(CCC(=O)NCCNc1c2c(nc3ccccc13)CCCC2)C1CCCCC1`, the pIC50 against Acetylcholinesterase [1] was 6.63; at Cholinesterase, 6.12.
For `CCN(CCC(=O)NCCCNc1c2c(nc3ccccc13)CCCC2)C1CCCCC1`, the values for the pIC50 on Acetylcholinesterase [1] and against Cholinesterase were 7.58 and 6.57, respectively. Further, the values for the pKi on Acetylcholinesterase [2] and at Acetylcholinesterase [3] were 7.09 and 7.10, respectively.
Turning to `CCN(CCC(=O)NCCCCNc1c2c(nc3ccccc13)CCCC2)C1CCCCC1`, the pIC50 is 7.03 against Acetylcholinesterase [1] and 6.64 at Cholinesterase. For the same compound, the pKi on Acetylcholinesterase [2] was 6.70; at Acetylcholinesterase [3], 6.48.
With `CN(CCC(=O)NCCNc1c2c(nc3ccccc13)CCCC2)C1CCCCC1`, the pIC50 at Acetylcholinesterase [1] was 6.24; on Cholinesterase, 5.69.
For `CN(CCC(=O)NCCCNc1c2c(nc3ccccc13)CCCC2)C1CCCCC1`, the pIC50 at Acetylcholinesterase [1] was 6.40; at Cholinesterase it was 5.62.
As to `CN(CCC(=O)NCCCCNc1c2c(nc3ccccc13)CCCC2)C1CCCCC1`, the pIC50 was 6.98 at Acetylcholinesterase [1] and 5.65 against Cholinesterase.
The like results for `O=C(Cc1cc(=O)oc2cc(O)ccc12)NCCNc1c2c(nc3ccccc13)CCCC2` were, in that order, 5.54 and 4.90.
For `O=C(Cc1cc(=O)oc2cc(O)ccc12)NCCCNc1c2c(nc3ccccc13)CCCC2`, in that order: 6.56 and 6.08.
Turning to `O=C(Cc1cc(=O)oc2cc(O)ccc12)NCCCCNc1c2c(nc3ccccc13)CCCC2`, the pIC50 is 7.81 against Acetylcholinesterase [1] and 6.48 on Cholinesterase. In addition, the results for the pKi on Acetylcholinesterase [2] and at Acetylcholinesterase [3] were 8.39 and 7.63, respectively.
For `O=C(Cc1cc(=O)oc2cc(O)ccc12)NNC(=S)Nc1c2c(nc3ccccc13)CCCC2`, in that order: 5.09, 5.85, 5.71 and 4.03.
For `O=C(Cc1cc(=O)oc2cc(O)ccc12)N/N=C1\SCC(=O)N1c1c2c(nc3ccccc13)CCCC2`, in that order: 4.80, 5.25, 5.63 and 4.19.

Values taken from ChEMBL document CHEMBL3351824, “Synthesis and biological evaluation of novel tacrine derivatives and tacrine-coumarin hybrids as cholinesterase inhibitors” (J Med Chem, 2014).
